From patent US12421253B2 (Mirati Therapeutics, Inc., priority 2020, dated 2025)

What was measured:
[1] = molecular target: T1, KRas^WT (Homo sapiens, UniProt P01116); test: KRas binding assay (TR-FRET displacement of Cy5 labelled tracer)
T1 construct: […]; biotin (biotinylated); purchased Accelegan Inc
Procedure: (§3) The ability of a compound to bind to KRas was measured using a TR-FRET displacement assay. […] After a 60-minute incubation at room temperature, the reaction was measured using a BMG LABTECH CLARIO star Plus via TR-FRET. […] The POC values were fit to a 4-parameter IC50 equation and the IC50 value reported.

[2] = molecular target: T2, KRas^G12R (Homo sapiens, UniProt P01116, G12R); test: as above
T2 construct: […]; biotin (biotinylated); purchased Accelegan Inc
Procedure: as §3

[3] = molecular target: T3, KRas^G12D (Homo sapiens, UniProt P01116, G12D); test: as above
T3 construct: […]; biotin (biotinylated); purchased Accelegan Inc
Procedure: as §3

[4] = molecular target: T4, KRas^G12V (Homo sapiens, UniProt P01116, G12V); test: as above
T4 construct: […]; biotin (biotinylated); purchased Accelegan Inc
Procedure: as §3

[5] = molecular target: T5, KRas^G12A (Homo sapiens, UniProt P01116, G12A); test: as above
T5 construct: […]; biotin (biotinylated); purchased Accelegan Inc
Procedure: as §3

[6] = molecular target: KRas^Q61H (Homo sapiens, UniProt P01116, Q61H); test: biochemical
Procedure: as §3

[7] = molecular target: KRas^G13D (Homo sapiens, UniProt P01116, G13D); test: biochemical
Procedure: as §3

[8] = molecular target: T6, KRas^G12S (Homo sapiens, UniProt P01116, G12S); test: KRas binding assay (TR-FRET displacement of Cy5 labelled tracer)
T6 construct: […]; biotin (biotinylated); purchased Accelegan Inc
Procedure: as §3

[9] = system: NCI-H358 (G12C) cells, phospho-ERK; test: Inhibition of KRas-mediated phosphorylation of ERK (phospho-ERK/GAPDH antibody detection, LI-COR); assay type: cell-based; conditions: Homo sapiens, 3 hours
Procedure, shortened: (§1)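 Cells seeded 20,000/well, attached 12-14 h, then compound (0.5% DMSO) for 3 h. Formaldehyde-fixed, methanol-permeabilized cells stained for phospho-ERK (Thr202/Tyr204) and GAPDH; infrared imaging. Ratio expressed as % of DMSO control; IC50 from 4-parameter fit.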

[10] = system: A549 (G12S) cells, phospho-ERK; test: as above; assay type: cell-based; conditions: Homo sapiens, 3 hours
Procedure, shortened: as §1

[11] = system: NCI-H460 (Q61H) cells, phospho-ERK; test: as above; assay type: cell-based; conditions: Homo sapiens, 3 hours
Procedure, shortened: as §1

[12] = system: HCT116 (G13D) cells, phospho-ERK; test: as above; assay type: cell-based; conditions: Homo sapiens, HCT-116, 3 hours
Procedure, shortened: as §1

[13] = system: PSN-1 (G12R) cells, phospho-ERK; test: as above; assay type: cell-based; conditions: Homo sapiens, PSN1, 3 hours
Procedure, shortened: as §1

[14] = system: AsPC-1 (G12D) cells, phospho-ERK; test: as above; assay type: cell-based; conditions: Homo sapiens, ASPC1, 3 hours
Procedure, shortened: as §1

[15] = system: NCI-H727 (G12V) cells, phospho-ERK; test: as above; assay type: cell-based; conditions: Homo sapiens, 3 hours
Procedure, shortened: as §1

[16] = system: ASPC1 cells, pERK; test: Inhibition of KRas phosphorylation of ERK (Cisbio HTRF Advanced pERK assay); assay type: cell-based; conditions: Homo sapiens, ASPC1, 3 h, AsPC-1 cells, read-out: Inhibition (HTRF IC50 nM) of KRas-mediated Phosphorylation of ERK, AsPC-1
Procedure, shortened: (§2)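 Compound effect on ERK phosphorylation is measured after 3 h exposure of cells, seeded the previous day in RPMI with 10% FBS, to ten 3-fold dilutions starting at 10 uM. Lysates are probed by HTRF for pERK, with trametinib at 0.2 uM defining the minimum signal.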

[17] = system: A549 cells, pERK; test: as above; assay type: cell-based; conditions: Homo sapiens, 3 hrs, read-out: Inhibition (HTRF IC50 nM) of KRas-mediated Phosphorylation of ERK, A549
Procedure, shortened: as §2

[18] = system: H460 cells, pERK; test: as above; assay type: cell-based; conditions: Homo sapiens, NCI-H460, 3 hrs, read-out: Inhibition (HTRF IC50 nM) of KRas-mediated Phosphorylation of ERK, H460
Procedure, shortened: as §2

[19] = system: H727 cells, pERK; test: as above; assay type: cell-based; conditions: Homo sapiens, NCI-H727, 3 h, read-out: Inhibition (HTRF IC50 nM) of KRas-mediated Phosphorylation of ERK, H727
Procedure, shortened: as §2

[20] = system: HCT116 cells, pERK; test: as above; assay type: cell-based; conditions: Homo sapiens, HCT-116, 3 hrs, read-out: Inhibition (HTRF IC50 nM) of KRas-mediated Phosphorylation of ERK, HCT116
Procedure, shortened: as §2

[21] = molecular target: KRas^G12C (Homo sapiens, UniProt P01116, G12C); test: biochemical
Sequence of KRas^G12C (P01116 1-169 isoform P01116-2 G12C): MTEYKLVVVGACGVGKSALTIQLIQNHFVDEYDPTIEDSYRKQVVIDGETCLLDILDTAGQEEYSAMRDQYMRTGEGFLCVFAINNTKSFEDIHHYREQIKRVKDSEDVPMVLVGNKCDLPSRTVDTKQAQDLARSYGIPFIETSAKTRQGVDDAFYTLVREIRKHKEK
Procedure: as §3

T1 sequence (P01116 1-169 isoform P01116-2): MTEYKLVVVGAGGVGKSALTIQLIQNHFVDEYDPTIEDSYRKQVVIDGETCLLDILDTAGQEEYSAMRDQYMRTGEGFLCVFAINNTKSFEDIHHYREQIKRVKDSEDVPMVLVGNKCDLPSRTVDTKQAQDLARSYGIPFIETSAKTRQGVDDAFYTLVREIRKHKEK
T3 sequence (P01116 1-169 isoform P01116-2 G12D): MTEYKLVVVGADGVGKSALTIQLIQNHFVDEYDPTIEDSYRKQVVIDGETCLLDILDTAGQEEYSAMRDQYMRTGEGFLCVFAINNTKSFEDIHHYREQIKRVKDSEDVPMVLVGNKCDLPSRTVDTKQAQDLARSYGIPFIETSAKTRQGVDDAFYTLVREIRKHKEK
T6 sequence (P01116 1-169 isoform P01116-2 G12S): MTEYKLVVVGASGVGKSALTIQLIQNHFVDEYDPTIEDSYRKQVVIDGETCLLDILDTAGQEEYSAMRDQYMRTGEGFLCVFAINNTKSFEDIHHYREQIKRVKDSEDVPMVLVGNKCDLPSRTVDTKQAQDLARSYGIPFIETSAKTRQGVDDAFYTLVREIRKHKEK
T5 sequence (P01116 1-169 isoform P01116-2 G12A): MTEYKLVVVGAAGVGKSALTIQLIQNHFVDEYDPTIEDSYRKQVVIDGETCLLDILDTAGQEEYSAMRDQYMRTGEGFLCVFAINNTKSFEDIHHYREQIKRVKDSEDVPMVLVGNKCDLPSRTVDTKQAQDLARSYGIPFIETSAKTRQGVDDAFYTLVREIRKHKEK
Sequence of KRas^Q61H (P01116 1-169 isoform P01116-2 Q61H): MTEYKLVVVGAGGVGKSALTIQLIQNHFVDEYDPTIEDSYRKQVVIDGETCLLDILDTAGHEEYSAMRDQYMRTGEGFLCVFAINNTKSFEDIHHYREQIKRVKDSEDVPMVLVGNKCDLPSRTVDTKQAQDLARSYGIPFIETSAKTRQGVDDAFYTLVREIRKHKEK
T2 sequence (P01116 1-169 isoform P01116-2 G12R): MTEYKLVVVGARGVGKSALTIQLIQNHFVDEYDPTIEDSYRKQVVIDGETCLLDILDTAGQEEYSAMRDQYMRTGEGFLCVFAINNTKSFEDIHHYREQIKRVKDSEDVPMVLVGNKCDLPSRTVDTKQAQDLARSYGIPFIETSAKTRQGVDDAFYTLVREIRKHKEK
T4 sequence (P01116 1-169 isoform P01116-2 G12V): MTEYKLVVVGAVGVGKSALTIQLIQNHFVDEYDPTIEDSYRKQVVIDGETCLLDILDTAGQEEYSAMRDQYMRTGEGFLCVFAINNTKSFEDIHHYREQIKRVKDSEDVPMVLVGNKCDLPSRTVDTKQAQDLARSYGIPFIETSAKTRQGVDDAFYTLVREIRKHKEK
Sequence of KRas^G13D (P01116 1-169 isoform P01116-2 G13D): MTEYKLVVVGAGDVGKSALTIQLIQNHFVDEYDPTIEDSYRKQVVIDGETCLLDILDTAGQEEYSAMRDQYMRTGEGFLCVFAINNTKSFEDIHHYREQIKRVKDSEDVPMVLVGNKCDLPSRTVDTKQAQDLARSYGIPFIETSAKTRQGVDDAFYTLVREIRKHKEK

Compound | IC50 [1] [nM] | IC50 [2] [nM] | IC50 [3] [nM] | IC50 [4] [nM] | IC50 [5] [nM] | IC50 [6] [nM] | IC50 [7] [nM] | IC50 [8] [nM] | IC50 [9] [nM] | IC50 [10] [nM] | IC50 [11] [nM] | IC50 [12] [nM] | IC50 [13] [nM] | IC50 [14] [nM] | IC50 [15] [nM] | IC50 [21] [nM] | other results
CCc1c(F)ccc2cc(O)cc(N3CCc4c(nc(OC[C@@]56CCCN5C[C@H](F)C6)nc4N4CCC[C@@](C)(O)C4)C3)c12 [Example 2, (R)-1-(7-(8-ethyl-7-fluoro-3-hydroxynaphthalen-1-yl)-2-(((2R,7aS)-2-fluorohexahydro-1H-pyrrolizin-7a-yl)methoxy)-5,6,7,8-tetrahydropyrido[3,4-d]pyrimidin-4-yl)-3-methylpiperidin-3-ol] | ≤ 2 | ≤ 2 | ≤ 2 | ≤ 2 | ≤ 2 | ≤ 2 | 52 | ≤ 2 | 252 | 241 | 184 | 863 | 3530 | 280 | 798 | ≤ 2 | IC50 [16]: 29 nM; IC50 [17]: 144 nM; IC50 [18]: 146 nM; IC50 [19]: 315 nM; IC50 [20]: 426 nM
CCc1c(F)ccc2cc(O)cc(N3CCc4c(nc(OCC56CCCN5CCC6)nc4N4CCC[C@@](C)(O)C4)C3)c12 [Example 1, (R)-1-(7-(8-ethyl-7-fluoro-3-hydroxynaphthalen-1-yl)-2-((hexahydro-1H-pyrrolizin-7a-yl)methoxy)-5,6,7,8-tetrahydropyrido[3,4-d]pyrimidin-4-yl)-3-methylpiperidin-3-ol] | ≤ 2 | ≤ 2 | ≤ 2 | ≤ 2 | ≤ 2 | ≤ 2 | ≤ 2 | ≤ 2 | 236 | 1020 | 357 | 601 | 1400 | 398 | 1260 | ≤ 2 | –
